The experiment concerns Cathepsin B. Briefly: Cathepsin B activity in lysate of LNCaP clone FGC cells. Type of experiment: cell-based, human. To be noted: 4 passages in supplemented medium.

The structures appear in SMILES notation.

Results on one molecule are retold here after patent US20230124095A1 (AMORPHICAL LTD., priority 2020, published 2023).

Regarding `[Ca+2].[Cl-].[Cl-]` [CaCl2, calcium chloride], the “reduction of Cathepsin B activity compared to untreated control” value came out at 16%.
